Measurements as given in article PMC11530130, “Peripherally restricted PICK1 inhibitor mPD5 ameliorates pain behaviors in murine inflammatory and neuropathic pain models” (JCI Insight, 2024).
“And” between values parts separate entries of the source, which are not always exact repeats. Equal entries are not always repeated.

Key:
[1] = target: human serum albumin (HSA) (Homo sapiens, UniProt P02768); assay: FIDA binding to human serum albumin
Method: Flow-induced dispersion analysis (FIDA).
FIDA was carried out using a fluorescently labelled (AF488-NHS) mPD5 analogue, and
(100 nM), using the standard protocol recommended by the manufacturer, in short, mPD5 and
sample was injected into the capillary followed by a buffer injection. The diffusion of the
curve smoothing. Resulting hydrodynamic radius was plotted using GraphPad Prism 8.3.

[2] = tested on: mice, CFA model of inflammatory pain; assay: CFA model of inflammatory pain, von Frey, s.c. administration; type: in vivo, mouse; conditions: for paw withdrawal threshold (von Frey), individual mice / von Frey paw withdrawal threshold, ipsilateral paw (Fig S7A) / von Frey paw withdrawal threshold, contralateral paw (Fig S7A): listed as myr; for von Frey paw withdrawal threshold, ipsilateral paw (Fig S7A) / von Frey paw withdrawal threshold, contralateral paw (Fig S7A): CFA mice, individual animals; for von Frey paw withdrawal threshold, ipsilateral paw (Fig S7A): group 10; for von Frey paw withdrawal threshold, contralateral paw (Fig S7A): group 10_contra; for effect on mechanical hypersensitivity (PWT): CFA, male mice
Method: Unless otherwise specified, wild type C57BL/6NRj mice (male and female, aged eight-weeks at the beginning of experiment) were used (Janvier, France). Animals were allowed at least seven days of habituation to the animal facility before initiation of experiment. Mice were group-housed in a temperature-controlled room, maintained on a 12/12hour light/dark cycle (lights on at 6 A.M) with free access to standard rodent chow (Altromin 1342 (Brogaarden, […]
Drug administration and dosing for animal experiments.
All compounds were diluted in PBS or saline (depending on control) and administered through different routes i.t. (7 μL/mouse)), i.p. (10 μL/g) or s.c. (10 μL/g)) as indicated. Doses of mPD5 were based on previous studies with TPD5 (6) with a subcutaneous dose-range included in the CFA studies further guiding dose selection for SNI, STZ and CIBP studies. Pregabalin dose was chosen based on previous experience from Phenotype Expertise (Marseilles, France). In the CIBP model, a dose of […] morphine was chosen to avoid hyperactivity, though known to provide only partial pain relief in this model. In remaining experiments, 5 mg/kg morphine was chosen, known to provide full pain relief, except for the conditioned place preference experiment, where 10 mg/kg was used instead in accordance with literature. […]
µL of IS1 (internal standard in MeOH (Labetalol & tolbutamide & Verapamil & dexamethasone & glyburide & Celecoxib 100 ng/mL for each)) and the mixture was vortexed for 10 min at 800 rpm and centrifuged for 15 min at 3220 × g at 4 ℃. An aliquot of 65 µL supernatant was transferred to a clean 96-well plate and centrifuged for 5 min at 3220 × g at 4 ℃, then the supernatant was directly injected for LC-MS/MS analysis. Plasma half-lives were determined from three points in the elimination phase. In a separate experiment, biodistribution was assessed (plasma, CSF, spinal cord, whole brain) at two hours after single dose of 10 µmol/kg or one hour after last injection in the repeated administration paradigm (10 µmol/kg followed by four s.c. administrations of 2 µmol/kg with one hour between). At these times, plasma levels were similar between the two paradigms. Plasma, CSF, and tissue samples (kept at 4 ℃) were processed and analysed as described above.
Concentration 10 µmol/kg: Wild type mice were habituated to the experimental room for a minimum of 60 min before initiation of the experiment. Female and male mice were run on separate days. Mice were injected s.c. with 10 μmol/kg mPD5 or sterile PBS directly before being placed in open field boxes (40 cm x 40 cm x 80 cm) for 2.5 hours with up to four mice in boxes at any one time. A video camera placed above the open field recorded the animals’ behaviour and Ethovision XT 13 (Noldus) was used to track the distance travelled by the […]
Concentration 30 + 50 µmol/kg: Animals were habituated to the experimental room for a minimum of 60 min before initiation of the experiment. At initiation of experiment, the mice (all male) were injected subcutaneously (s.c.) with mPD5 (30 or 50 μmol/kg, pH adjusted to approximately 7 with 5 M NaOH) or 0.9 % saline (B.Braun, Germany) and left in their home cage for 60 min. After exactly one hour, the mice were placed in an open field (40 cm x 40 cm x 80 cm) for 60 min. A video camera placed above the open field recorded the animals’ […]
animal. The experiment was run in cohort with Figure 2B+C of (9)).
Induction of inflammatory pain (CFA model).
Injury was induced on the right hind paw, whereas the contralateral left hind paw was used as internal control of the C57BL/6J male and female mice (Janvier, France). The inflammatory pain was induced by injection of 50 μL undiluted Complete Freund’s Adjuvant (CFA) (F5881, Sigma) unilaterally into the intraplantar surface of the right hind paw, whereas control mice were injected with the same amount of 0.9 % saline (B. Braun, Germany). All intraplantar injections were performed with an insulin needle (0.3 mL BD Micro-Fine) while the animal […]

[3] = 1 hr post myr injection on day 2
[4] = 5 hrs post myr injection on day 2
[5] = 25 hrs post myr injection on day 2
[6] = day 2 after CFA injection (before dosing)

human serum albumin (HSA), sequence (P02768 25-609): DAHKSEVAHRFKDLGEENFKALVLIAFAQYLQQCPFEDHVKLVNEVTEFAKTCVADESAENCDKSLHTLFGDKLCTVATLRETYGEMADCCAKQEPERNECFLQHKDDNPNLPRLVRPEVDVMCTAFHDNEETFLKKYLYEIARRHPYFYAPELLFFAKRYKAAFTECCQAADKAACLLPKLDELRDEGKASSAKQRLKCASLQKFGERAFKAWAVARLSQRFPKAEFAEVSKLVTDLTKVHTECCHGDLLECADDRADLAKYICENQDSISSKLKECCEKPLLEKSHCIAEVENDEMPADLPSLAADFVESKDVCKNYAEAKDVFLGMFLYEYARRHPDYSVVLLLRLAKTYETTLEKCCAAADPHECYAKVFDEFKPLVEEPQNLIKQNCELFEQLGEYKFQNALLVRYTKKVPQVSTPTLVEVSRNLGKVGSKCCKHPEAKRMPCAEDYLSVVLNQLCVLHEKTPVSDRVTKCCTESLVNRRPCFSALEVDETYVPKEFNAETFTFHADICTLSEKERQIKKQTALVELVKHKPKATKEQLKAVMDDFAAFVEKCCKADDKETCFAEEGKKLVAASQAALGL

## CCCCCCCCCCCCCC(=O)N(CCOCCOCCC(=O)N[C@@H](Cc1c[nH]cn1)C(=O)N[C@@H](Cc1c[nH]c2ccccc12)C(=O)N[C@@H](CC(C)C)C(=O)N[C@@H](CCCCN)C(=O)N[C@H](C(=O)O)C(C)C)CCOCCOCCC(=O)N[C@@H](Cc1c[nH]cn1)C(=O)N[C@@H](Cc1c[nH]c2ccccc12)C(=O)N[C@@H](CC(C)C)C(=O)N[C@@H](CCCCN)C(=O)N[C@H](C(=O)O)C(C)C [mPD5, myristoyl-NPEG4-(HWLKV)2]
[1]
  HSA species bound, from RH: binds to dimeric HSA
[2]; CFA day 2, s.c. 50 μmol/kg, contralateral paw, 1 hr post injection
  paw withdrawal threshold (von Frey), individual mice: 1 (3×) and 2 (3×)
[2]; CFA day 2, s.c. 50 μmol/kg, contralateral paw, 5 hrs post injection
  paw withdrawal threshold (von Frey), individual mice: 1 (3×) and 1.4 (3×)
[2]; CFA day 2, s.c. 50 μmol/kg, contralateral paw, 24 hrs post injection
  paw withdrawal threshold (von Frey), individual mice: 1.4 (2×) and 2 (3×) and 1
[2]; CFA day 2, s.c. 50 μmol/kg, contralateral paw, 262 hrs post injection
  paw withdrawal threshold (von Frey), individual mice: 1 and 2 (2×) and 1.4 (3×)
[2]; CFA day 2, s.c. 50 μmol/kg, ipsilateral paw, 1 hr post injection
  paw withdrawal threshold (von Frey), individual mice: 0.4 and 1.4 and 2 (2×) and 1 (2×)
[2]; CFA day 2, s.c. 50 μmol/kg, ipsilateral paw, 5 hrs post injection
  paw withdrawal threshold (von Frey), individual mice: 0.6 and 0.4 (2×) and 1 and 0.16 (2×)
[2]; CFA day 2, s.c. 50 μmol/kg, ipsilateral paw, 24 hrs post injection
  paw withdrawal threshold (von Frey), individual mice: 0.07 and 0.16 (2×) and 0.4 (3×)
[2]; CFA day 2, s.c. 50 μmol/kg, ipsilateral paw, 262 hrs post injection
  paw withdrawal threshold (von Frey), individual mice: 1 (2×) and 1.4 (3×) and 0.6
[2]; CFA dose range, s.c. 2 μmol/kg, contralateral paw, 1 hr post injection
  paw withdrawal threshold (von Frey), individual mice: 2 (4×) and 1.4
[2]; CFA dose range, s.c. 2 μmol/kg, ipsilateral paw, 1 hr post injection
  paw withdrawal threshold (von Frey), individual mice: 0.6 and 0.16 and 1 and 1.4 and 0.4
[2]; CFA dose range, s.c. 2 μmol/kg, ipsilateral paw, 5 hrs post injection
  paw withdrawal threshold (von Frey), individual mice: 0.4 and 0.16 (3×) and 0.6
[2]; CFA dose range, s.c. 10 μmol/kg, contralateral paw, 1 hr post injection
  paw withdrawal threshold (von Frey), individual mice: 1.4 (4×) and 2 (2×)
[2]; CFA dose range, s.c. 10 μmol/kg, contralateral paw, 5 hrs post injection
  paw withdrawal threshold (von Frey), individual mice: 1 (2×) and 1.4
[2]; CFA dose range, s.c. 10 μmol/kg, ipsilateral paw, 1 hr post injection
  paw withdrawal threshold (von Frey), individual mice: 0.4 and 0.6 (2×) and 1.4 and 0.16 and 1
[2]; CFA dose range, s.c. 10 μmol/kg, ipsilateral paw, 5 hrs post injection
  paw withdrawal threshold (von Frey), individual mice: 0.16 and 0.6 (2×) and 1.4
[2]; CFA dose range, s.c. 50 μmol/kg, contralateral paw, 1 hr post injection
  paw withdrawal threshold (von Frey), individual mice: 1.4 (4×) and 2
[2]; CFA dose range, s.c. 50 μmol/kg, contralateral paw, 5 hrs post injection
  paw withdrawal threshold (von Frey), individual mice: 2 (3×) and 1.4 (2×)
[2]; CFA dose range, s.c. 50 μmol/kg, ipsilateral paw, 1 hr post injection
  paw withdrawal threshold (von Frey), individual mice: 1.4 (3×) and 0.6 (2×)
[2]; CFA dose range, s.c. 50 μmol/kg, ipsilateral paw, 5 hrs post injection
  paw withdrawal threshold (von Frey), individual mice: 0.6 and 1 (2×)
[2]; [3]
  von Frey paw withdrawal threshold, ipsilateral paw (Fig S7A): 0.6 (2×) and 1 (3×) and 0.4
  von Frey paw withdrawal threshold, contralateral paw (Fig S7A): 1 (4×) and 1.4 and 0.6
[2]; [4]
  von Frey paw withdrawal threshold, ipsilateral paw (Fig S7A): 0.16 (2×) and 0.07 (2×) and 0.4 and 0.6
  von Frey paw withdrawal threshold, contralateral paw (Fig S7A): 1 (4×) and 0.6 and 1.4
[2]; [5]
  von Frey paw withdrawal threshold, ipsilateral paw (Fig S7A): 0.07 (4×) and 0.16 (2×)
  von Frey paw withdrawal threshold, contralateral paw (Fig S7A): 0.6 (2×) and 1 (4×)
[2]; baseline before CFA injection
  von Frey paw withdrawal threshold, ipsilateral paw (Fig S7A): 1 and 1.4 (5×)
  von Frey paw withdrawal threshold, contralateral paw (Fig S7A): 1.4 (5×) and 1
[2]; [6]
  von Frey paw withdrawal threshold, ipsilateral paw (Fig S7A): 0.07 (4×) and 0.16 (2×)
  von Frey paw withdrawal threshold, contralateral paw (Fig S7A): 1 (3×) and 0.6 (2×) and 1.4
[2]; s.c. 50 μmol/kg, 5 hours after injection
  effect on mechanical hypersensitivity (PWT): significant reduction of mechanical hypersensitivity
[2]; s.c. 2, 10 and 50 μmol/kg (all doses), 1 hour after administration
  effect on mechanical hypersensitivity (PWT): significant reversion of mechanical hypersensitivity
[2]; single s.c. 50 μmol/kg, 1 hour after injection
  effect on mechanical hypersensitivity (PWT): reverted hypersensitivity
[2]; female mice, s.c. 10 μmol/kg
  reversion of CFA-induced mechanical hypersensitivity in female mice: confirmed
